Assay results reported in patent US20120122908A1, “Novel C-4 Substituted Retinoids” (University of Maryland, priority 2000, published 2012).

How the values were obtained:
CYP19 (aromatase) = molecular target: T1, CYP19 (aromatase) (Homo sapiens, UniProt P11511); assay: Selectivity: effect on CYP19 (aromatase); type: biochemical; settings: concentration as high as 5 μM
T1 sequence (P11511 1-503): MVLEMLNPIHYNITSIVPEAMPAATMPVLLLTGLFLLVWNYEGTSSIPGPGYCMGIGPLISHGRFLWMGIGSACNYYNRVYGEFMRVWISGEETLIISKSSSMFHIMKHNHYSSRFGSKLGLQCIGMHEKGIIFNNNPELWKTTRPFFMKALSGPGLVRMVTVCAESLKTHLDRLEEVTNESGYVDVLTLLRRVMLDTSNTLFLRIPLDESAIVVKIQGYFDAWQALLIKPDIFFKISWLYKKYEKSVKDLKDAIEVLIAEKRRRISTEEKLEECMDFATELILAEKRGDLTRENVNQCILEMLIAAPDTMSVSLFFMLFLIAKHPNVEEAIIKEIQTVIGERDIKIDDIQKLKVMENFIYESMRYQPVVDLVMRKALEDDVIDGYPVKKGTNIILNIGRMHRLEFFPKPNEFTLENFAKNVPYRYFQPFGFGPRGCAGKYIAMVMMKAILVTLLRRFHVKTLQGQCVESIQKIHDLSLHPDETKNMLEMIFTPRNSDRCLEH
Protocol: The selectivity of the compounds of the present invention towards ATRA-4-hydroxylase was tested by measuring the effect on the key enzymes in the biosynthesis of estradiol and dehydroepiandrosterone, CYP19 (aromatase) and CYP17 (17-lyase), respectively.

RARα = molecular target: T2, RARα (Homo sapiens, UniProt P10276); assay: Competitive [3H]ATRA binding to recombinant RARα; settings: for binding to RARα: concentrations up to 500 nM
T2 construct: Recombinant full-length RAR proteins were expressed as S-Tag fusion proteins in BL21 E. coli cells; S-Tag; made in house; host or cells: E. coli BL21
T2 sequence (P10276 1-462): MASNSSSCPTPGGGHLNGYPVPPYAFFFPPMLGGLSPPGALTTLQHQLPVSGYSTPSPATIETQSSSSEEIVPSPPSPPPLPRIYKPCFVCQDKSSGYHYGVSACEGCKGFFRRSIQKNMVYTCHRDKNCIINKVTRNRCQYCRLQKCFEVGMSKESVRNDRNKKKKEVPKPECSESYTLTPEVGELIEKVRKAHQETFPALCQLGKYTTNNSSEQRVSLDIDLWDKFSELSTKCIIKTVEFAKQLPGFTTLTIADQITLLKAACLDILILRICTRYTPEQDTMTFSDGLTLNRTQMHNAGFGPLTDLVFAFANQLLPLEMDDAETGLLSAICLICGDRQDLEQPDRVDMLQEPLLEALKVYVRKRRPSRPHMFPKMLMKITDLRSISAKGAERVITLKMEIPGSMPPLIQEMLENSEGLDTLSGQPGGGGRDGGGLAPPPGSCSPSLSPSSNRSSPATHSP
From the text: Because the novel compounds are retinoid-related analogs, they bind to the retinoid receptors in vivo and thus have increased therapeutic potentials. Similar to ATRA, these novel compounds act as a ligand for the retinoic acid receptors (RARs, α, β, and γ) but not the retinoid X receptors (RXRs, α, β, and γ). […] (Nervi C, Grippo J F, Sherman M I, George M D, Jetten A M, Identification and characterization of nuclear retinoic acid-binding activity inhuman myeloblastic leukemia HL-60 cells, Proc Natl Acad Sci USA 86: 5854-5858, 1989) The dissociation constants for the inhibitors is determined by the well described charcoal absorption method (Yang N, Schule R, Mangelsdorf D J, Evans R M, Characterization of DNA binding and retinoic acid binding properties of retinoic acid receptor, Proc Natl Acad Sci USA 88: 3559-3663, 1991). Briefly, serial dilutions of the novel compounds (10^−11 to 10^−5 M) in dimethyl sulfoxide, 100 μL each is used. 12 mg of crude cytosolic extracts is prepared from pET15b (Novagen, Madison, Wis.)/hRAR-α, -β, and -γ prepared protein is used for each data point. All reactions are conducted in binding buffer (60 mM Na imidazole, 500 mM NaCl, 20 mM Tris, pH 7.9) for 14-16 hours at 4° C. in a final volume of 1 mL. Unbound [^3H]ATRA is removed by addition of 0.5 mL of equivalent-sized dextran-treated charcoal (final concentration 3% [wt/vol]) for 15 minutes at 4° C. […]
Since the RAMBAs are retinoic acid analogs, it is possible that some of the compounds may bind to retinoid receptors and function as either transcriptional agonists/antagonists or may display anti AP-1 activity (Chambon P, A decade of molecular biology of retinoic acid, FASEB J 10: 5899-5904, 19962. The ability of three RAMBAs, VN/14-1, VN/50A-1 and VN/66-1 to bind to the individual RAR receptors was thus evaluated in vitro. Recombinant full-length RAR proteins were expressed as S-Tag fusion proteins in BL21 E. coli cells used for competitive binding assays. Each competition-binding assay contained 1 nM [^3H] […]

SMILES | inhibition of CYP19 (aromatase) (CYP19 (aromatase)) | IC50 (RARα; 1 nM [3H]ATRA, competitor 1 nM to 500 nM) [nM] | binding to RARα (RARα)
CC1=C(/C=C/C(C)=C/C=C/C(C)=C/C(=O)O)C(C)(C)CCC1n1ccnc1 (racemic) [VN/14-1, (±)-4-(1H-imidazole-1-yl)retinoic acid] | barely inhibited | ~16 | 
CC(C=CC1=C(C)C(n2ccnc2)CCC1(C)C)=CC=CC(C)=CC(=O)Nc1ccc(O)cc1 (racemic) [VN/66-1, (±)-4-(1H-imidazol-1-yl), N-(4′-hydroxyphenyl)retinamide] | barely inhibited |  | did not bind
CC(C=CC1=C(C)C(n2ccnc2)CCC1(C)C)=CC=CC(C)=CC(=O)n1ccnc1 (stereo not drawn) [VN/50A-1] | barely inhibited |  | did not bind
